From US20210024628A1, “METHODS FOR MODULATING INNATE LYMPHOID CELL ACTIVITY, ANTIBODY DRUG CONJUGATES AND USES IN THERAPY” (INSERM (INSTITUT NATIONAL DE LA SANTÉ ET DE LA RECHERCHE …, priority 2018, published 2021)

Legend:
NK cells [1] = test: In vitro splenocyte stimulation with cytokines: PD1 expression (FACS); format: cell-based, mice
Procedure: (§1) Splenocytes from control and GR^Ncr1-iCre mice were stimulated in vitro in complete culture medium (RPMI 10% FCS, 100 μg/ml penicillin/streptomycin, 2 mM 1-glutamine, 1 mM sodium pyruvate, and 0.01 M Hepes) with: 25 ng/ml IL-12 (eBiosciences), 25 ng/ml IL-15 (Peprotech) and 20 ng/ml IL-18 (MBL) alone or in combination, or with PMA (200 ng/ml, Sigma) and ionomycin (1 μg/ml, Sigma). For NK1.1 stimulation 96 well plates (Immulon 2HB) were coated overnight at 37° C. with 2.5 ul/well anti-NK1.1 Ab (PK136, eBiosciences) or IgG2a isotype control before cell plating. During stimulation, 250 or 500 nM corticosterone (Sigma; dissolved in ethanol) or the same volume of vehicle alone were added to the medium. Cells were stimulated at 37° C. in the presence of Golgi Stop and Golgi Plug from BD Biosciences. After 4 h of stimulation, the cells were washed and stained for FACS analysis. For CD107a staining, 2.5 ul/well of anti-CD107a-FITC antibody (1D4B, BD Biosciences) were added during stimulation.
Single-cell suspensions were obtained from the spleen by scratching it through 70 um cell strainer, or from the liver by scratching it through 100 um cell strainer and subsequent lymphocyte isolation on a 37.5%-67.5% Percoll gradient. For isolation of small intestine lamina propria cells, intestines were cut longitudinally, then transversally in 2-3 cm pieces, thoroughly rinsed with PBS, and shaken for 30 minutes in PBS containing 10% FBS, 15 mM Hepes and 5 mM EDTA to remove intraepithelial and epithelial cells. Intestines were then digested with collagenase VIII (300UI/mL; Sigma) in complete RPMI for 45 minutes at 37° C. under agitation, and lamina propria lymphocytes were isolated on a 40%-100% Percoll gradient. Cells were incubated with the Fc blocking antibody (2.4G2) and with a fixable blue dead-cell stain kit (Invitrogen). Surface molecules were stained with antibodies against: CD45.2 (104), CD3 (145-2C11), CD19 (1D3), NK1.1 (PK136), CD49a (Ha31/8), CD11b (M1/70), MHCII (M5/114.15.2), TCRb (H57-597), PD1 (J43, and Hamster IgG2 isotype control), PDL1 (MIHS) from BD Biosciences; NKp46 (29A1.4), CD49b (DX5), F4/80 (BM8), Ly49H (3D10) from eBioscience; CD11c (N418), PD1 (RMP1-30, and Rat IgG2b isotype control), PDL2 (TY25) and Ly6G (1A8) from Biolegend. For intracellular staining, cells were fixed and permeabilized with an intracellular staining kit (eBioscience), and the following antibodies were used: anti-IFN-(XMG1.2) from Biolegend; anti-granzyme B (GB11), anti-Rort (Q31-378), anti-IL17 (TC11-18H10), anti-Ki67 (B56) from BD Biosciences, anti-IL-22 (JOP eBioscience, coupled to Alexa Fluor 647 with an antibody labeling kit from Life Technologies), anti-GR XP rabbit mAb (D8H2) and rabbit mAb IgG XP (DA1E) from Cell Signaling Technology. Stained samples were analyzed in a BD LSRII flow cytometer (BD Biosciences). Apoptosis was detected with the FITC Annexin V Apoptosis Detection Kit I from BD Biosciences, according to the manufacturer's protocol.

NK cells [2] = test: In vitro splenocyte stimulation: NK cell degranulation (CD107a); format: cell-based, mice; conditions: stimulation with anti-NK1.1 antibodies or PMA and ionomycine, data not shown
Procedure: as §1, with “For CD107a staining, 2.5 ul/well of anti-CD107a-FITC antibody (1D4B, BD Biosciences) were added during stimulation.” left out
Single-cell suspensions were obtained from the spleen by scratching it through 70 um cell strainer, or from the liver by scratching it through 100 um cell strainer and subsequent lymphocyte isolation on a 37.5%-67.5% Percoll gradient. […] Stained samples were analyzed in a BD LSRII flow cytometer (BD Biosciences). Apoptosis was detected with the FITC Annexin V Apoptosis Detection Kit I from BD Biosciences, according to the manufacturer's protocol.

How did the “PD1 expression on NK cells” value (NK cells [1]; corticosterone (250 or 500 nM) with the combination IL-15+IL-18, splenocytes, 4 h) turn out when `C[C@]12C[C@H](O)[C@H]3[C@@H](CCC4=CC(=O)CC[C@@]43C)[C@@H]1CC[C@@H]2C(=O)CO` [Corticosterone, (11β)-11,21-Dihydroxypregn-4-ene-3,20-dione] was run?
Its value is “able to induce PD1 expression on NK cells, in a dose-dependent manner”.

And the “PD1 expression on NK cells” value (NK cells [1]; corticosterone alone, splenocytes, 4 h at 37° C.)?
Its value is “not able to induce PD1 expression”.

And the “PD1 induction on T cells” value (NK cells [1]; corticosterone in addition to IL-15 and IL-18)?
Its value is “not observed”.

What about the “PD1 induction on NK cells from GR^Ncr1-iCre mice” value (NK cells [1]; corticosterone in addition to IL-15 and IL-18, GR-deficient NK cells) of the same molecule?
Its value is “not observed”.

And the “PD1 expression on NK cells” value (NK cells [1]; corticosterone in the presence of IL-15, splenocytes, 4 h)?
The value was “not able to induce PD1 expression”.

And the “PD1 expression on NK cells” value (NK cells [1]; corticosterone with IL-15+IL-18 and addition of IL-12)?
Its value is “abrogate this effect”.

And the “ability of NK cells to degranulate (measured by their CD107a expression)” value (NK cells [2])?
The value was “did not affect”.
